Assay results: US12391919B2, “Culture medium, coating matrix and method for maturing midbrain dopaminergic progenitor cells” (NUWACELL BIOTECHNOLOGIES CO., LTD., priority 2022, dated 2025)

B1: VTN: vitronectin, first coating matrix that supports cell adhesion (protein, UniProt P04004 20-478, looked up)
Vitronectin: DQESCKGRCTEGFNVDKKCQCDELCSYYQSCCTDYTAECKPQVTRGDVFTMPEDEYTVYDDGEEKNNATVHEQVGGPSLTSDLQAQSKGNPEQTPVLKPEEEAPAPEVGASKPEGIDSRPETLHPGRPQPPAEEELCSGKPFDAFTDLKNGSLFAFRGQYCYELDEKAVRPGYPKLIRDVWGIEGPIDAAFTRINCQGKTYLFKGSQYWRFEDGVLDPDYPRNISDGFDGIPDNVDAALALPAHSYSGRERVYFFKGKQYWEYQFQHQPSQEECEGSSLSAVFEHFAMMQRDSWEDIFELLFWGRTSAGTRQPQFISRDWHGVPGQVDAAMAGRIYISGMAPRPSLAKKQRFRHRNRKGYRSQRGHSRGRNQNSRRPSRATWLSLFSSEESNLGANNYDDYRMDWLVPATCEPIQSVFFFSGDKYYRVNLRTRRVDTVDPPYPRSIAQYWLGCPAPGHL

System: imDAPs
Assay: imDAP expansion: cell morphology, cell number (Vi-cell cytometer), expansion fold, Population Doubling Time
Format: cell-based, human
Details: for attachment and morphology of imDAPs on the coated surface: Example 8, coating 1 μg/cm^2, day 4, FIG. 4A
Experimental: imDAPs were produced according to the method described in CN201910169525.0. The imDAPs (P0) were seeded on VTN-coated plates (1 μg/cm^2) at a density of 1×10^5 cells/cm^2 in the expansion medium (50% DMEM/F12, 50% Neurobasal™ medium, 1% (v/v) Glutamax, 2% (v/v) B27 (50×), 0.2 μM LDN193189, 3 μM CHIR99021, 100 ng/mL FGF8b) in the absence or presence of 5 μM Blebbistatin. In case where Blebbistatin is present, Blebbistatin was either removed 24 hrs after plating or present throughout the culture period. The medium was changed every day for 5 days.
imDAPs were produced according to the method described in CN201910169525.0. The imDAPs (P0) were seeded on VTN-coated plates (1 μg/cm^2) at a density of 1×10^5 cells/cm^2 in the expansion medium (50% DMEM/F12, 50% Neurobasal™ medium, 1% (v/v) Glutamax, 2% (v/v) B27 (50×), 3 μM CHIR99021, 100 ng/mL FGF8b, […]) in the absence or presence of 0.2 μM LDN193189. The medium was changed every day for 5 days.
imDAPs were produced according to the method described in CN201910169525.0. The imDAPs (P0) were seeded on VTN-coated plates (1 μg/cm^2) at a density of 1×10^5 cells/cm^2 in the expansion medium (50% DMEM/F12, 50% Neurobasal™ medium, 1% (v/v) Glutamax, 2% (v/v) B27 (50×), 0.2 μM LDN193189, 3 μM CHIR99021, 100 ng/mL FGF8b, 5 μM Blebbistatin). The medium was changed every day. When imDAPs reach 100% confluence (4-5 days), cells were passaged enzymatically with 1× TrypLE, centrifuged at 250 g for 5 minutes, counted and replaced on new VTN-coated plates (1 μg/cm^2) at a density of 1×10^5 cells/cm^2 in the expansion medium. imDAPs were continuously expanded for 6 passages. At each passage, imDAPs were harvested at an expansion fold 5˜10 (over the initial number of imDAPs plated).
imDAPs were produced according to the method described in CN201910169525.0. The imDAPs (P0) were seeded on DLL4-coated ([…]), VTN-coated (1 μg/cm^2) and DLL4/VTN-coated ([…]) plates at a low density of 1×10^4 cells/cm^2 respectively, and cultured in the expansion medium in the absence or presence of 5 µM SB431542. Medium was replaced every 3rd day until reaching 100% confluence (6 days) for cell collection. The typical cell morphology on day 4 was recorded (FIG. 4A). The cell number of each group was counted by Vi-cell cytometer (FIG. 4B). The cells of each group were stained with Foxa2-PE antibody (BD, #561589), the percentage of Foxa2+ imDAPs were analyzed by flow cytometry (FIG. 4C). The expansion medium used in this example contained the following components: 50% DMEM/F12, 50% Neurobasal™ medium, 1% (v/v) Glutamax, 1% (v/v) B27, 50 μg/ml ascorbic acid, 0.2 μM LDN193189, 100 ng/ml FGF8b, 3 μM CHIR99021 and 10 μM Y27632.
imDAPs were produced according to the method described in CN201910169525.0. The imDAPs (P0) were seeded on DLL4/VTN-coated (1 μg/cm^2 for each) plates at a low density of 1×10^4 cells/cm^2, and cultured in the expansion medium (EM1, EM2, EM3, EM4). Medium was replaced every 3rd day until reaching 100% confluence (6 days) for cell collection. EM1 used in Example 9 contained the following components: 50% DMEM/F12, 50% Neurobasal™ medium, 1% (v/v) Glutamax, 1% (v/v) B27 (50×), […], 3 μM CHIR99021, 5 μM SB431542 and 10 μM Y27632. EM2 used in Example 9 contained the following components: 50% DMEM/F12, 50% Neurobasal™ medium, 1% (v/v) Glutamax, 1% (v/v) B27 (50×), 50 μg/ml ascorbic acid, […] LDN193189, 3 μM CHIR99021, 5 μM SB431542 and 10 μM Y27632. EM3 used in Example 9 contained the following components: 50% DMEM/F12, 50% Neurobasal™ medium, 1% (v/v) Glutamax, 1% (v/v) B27 (50×), 50 μg/mL ascorbic acid, […], 100 ng/ml FGF8b, 3 μM CHIR99021, 5 μM SB431542 and 10 μM Y27632. EM4 used in Example 9 contained the following components: 50% DMEM/F12, 50% Neurobasal™ medium, 1% (v/v) Glutamax, 1% (v/v) B27 (50×), 50 μg/ml ascorbic acid, 0.2 μM LDN193189, 10 ng/ml FGF2, 3 μM CHIR99021, 5 μM SB431542 and 10 μM Y27632. […]

Molecule | cell morphology of expanded imDAPs (Example 2, with vs without 0.2 μM LDN193189, VTN-coated plates, 5 days, FIG. 1B) | imDAP expansion (overall conclusion) (Example 9) | cell number during expansion (Example 9, added to medium with CHIR99021, SB431542 and Y27632, DLL4/VTN-coated, 6 days, FIG. 5B) | attachment and morphology of imDAPs on the coated surface
c1ccc2c(-c3cnn4cc(-c5ccc(N6CCNCC6)cc5)cnc34)ccnc2c1 [LDN193189] | cultured without LDN193189 showed more flattened morphology | had no additional effects on imDAP expansion | had no additional effect on increasing the cell number during expansion | 
DLL4: Notch agonist used as second coating matrix |  |  |  | could not support the attachment of imDAPs
B1 |  |  |  | showed flattened morphology
